Legend:
[1] = Inhibition of human His-tagged DNA polymerase gamma expressed in baculovirus assessed as inhibition of incorporation of dTTP into poly(dA)/oligo(dT)18 after 60 mins
DNA polymerase beta [2] = target: T1, DNA polymerase beta (Rattus norvegicus, UniProt P06766); experiment: Noncompetitive inhibition of recombinant rat DNA polymerase beta using dTTP as substrate by Lineweaver-Burk plot analysis
DNA polymerase beta [3] = target: T1, DNA polymerase beta; experiment: Competitive inhibition of recombinant rat DNA polymerase beta using poly(dA)/oligo(dT)18 as substrate by Lineweaver-Burk plot analysis
[4] = target: DNA polymerase beta (Rattus norvegicus) (UniProt P06766); experiment: Inhibition of recombinant rat DNA polymerase beta expressed in Escherichia coli JMpbeta5 assessed as inhibition of incorporation of dTTP into poly(dA)/oligo(dT)18 after 60 mins

| SMILES | IC50 [1] [µM] | Ki (DNA polymerase beta [2]) [µM] | Ki (DNA polymerase beta [3]) [µM] | inhibition [4] |
| --- | --- | --- | --- | --- |
| CC(/C=C/CCC(=O)N1CCCC1=O)=C\C1CCCCO1 (configuration not stated) | > 200 | – | – | – |
| CCCC[C@@H](O)/C=C(C)/C=C/C=C\C(=O)N1CCCC1=O | > 200 | 11.6 | 5.5 | Dose-dependent effect |
| CCCCC(=O)/C=C(C)/C=C/CCC(=O)N1CCCC1=O | > 200 | – | – | – |
| CCCC[C@@H](O)/C=C(C)/C=C/C=C/C(=O)N1CCCC1=O [PECILOCIN] | > 200 | – | – | – |

From ChEMBL document CHEMBL3124747, “Formosusin A, a novel specific inhibitor of mammalian DNA polymerase β from the fungus Paecilomyces formosus” (Bioorg Med Chem, 2014)
